Results taken from patent US20250288558A1, “THERAPEUTIC FOR SPINAL CORD INJURY TO INDUCE HYPOTHERMIA” (The Trustees of Indiana University, priority 2024, published 2025).
Counter-ions that a name gives are not always drawn. Like-named read-outs stand apart in the source and are kept apart here.

How the values were obtained:
[1] = test system: mice with moderate contusive spinal cord injury (SCI) at thoracic 9 (T9)
Experimental: The effects of different doses of Dex on hypothermia induction in none-injury young adult c57 BL/6 mice was tested. […] Further, we examined the change of Dex induced hypothermia when the routine Avertin (2.5%), a wildly used anesthetic for small animal surgery was applied.
Therefore, we compared the functional outcomes of Dex treated SCI mice with SCI only mice using multiple behavior tests post-trauma. C57 BL/6 wild type mice (female) at age of 8 weeks were randomly assigned into three different groups, including sham, SCI, and SCI+Dex. Then the moderate T9 contusive SCI was introduced in two injury groups using LISA injury model. Mice in sham and SCI only group were put on the heating pad to maintain their normal body temperature, while mice in Dex treated group were exposed in ambient room temperature of 24.5° C. for hypothermia during whole surgery and recovery process. One hour after injury, one dose of Dex (100 μg/kg) was IP administrated to rapidly induce early moderate to modest therapeutic hypothermia (30-32° C.). All mice body temperature were measured by rectal probe every 30 minutes to monitor the hypothermia after surgery till the mice fully waked up and back to normothermia. After SCI injury, at different time, multiple behavioral tests, were applied to examine functional outcomes and the potential neuroprotective effects of Dex treatment (FIG. 3A). The Basso Mouse Scale (BMS) was a reliable measurement that developed to examine the locomotion in spinal cord injured mice. It has been widely used in mouse functional evaluation and serves as an indicator of recovery. This test examines different locomotor categories such as paralysis, weight support, stepping, trunk stability, and so on. The scores ranged from 9 to 0 that represent normal movement to complete paralysis, respectively. Three days prior surgery, the BMS scores of all mice in different groups were measured. Only mice with 9 score were kept. The mice with score lower than 9 were replaced to make sure mice in different groups had same baseline of locomotion. After surgery, the BMS score was repeatedly measured at 3 days, 1 week, 2 weeks, 3 weeks, 4 weeks, 5 weeks, and 6 weeks (FIG. 3B).
Contusive spinal cord injury: Adult female C57BL/6 mice (8 weeks old, 18-22 g) were purchased from The Jackson Laboratory (Bar Harbor, ME). Depending on different injury model, mice were either randomly divided into three groups: sham, SCI+heating pad, and SCI+Dex for LISA injury model, or were randomly divided into four groups: sham, SCI+heating pad, SCI+Dex, and SCI+Conventional hypothermia for Infinite Horizons (IH) model. […]

[2] = test system: mice with moderate T9 contusive SCI; settings: n=10; for foot fall rate: Dex+SCI
Excerpt: In addition to Rotarod test, Grid walk test further was ran twice at […] post-injury to assess hindlimb movements involved in sensorimotor functions, such as precise stepping, coordination and accurate placement of the paw. A one-foot drop error was counted when the hindlimb paw was entirely dropping through the grid with all toes and heel below the grid surface.
(§1) Grid-walking: The grid-walking test assesses the ability of a mouse to place its paws on the rungs of a grid accurately during spontaneous exploration. An elevated metal rectangle grid (12×36 inch2 with each grid cell 0.5×0.5 inch2) and 16 inches above a table top was used for the hindlimb drop error test. Each mouse was placed in the center of the grid for 3 min. A one-foot drop error was counted when the hindlimb paw was entirely dropping through the grid with all toes and heel below the grid surface. The total number of foot drop errors and total number of steps were recorded by video. Two observers who were blinded to the experiment analyzed the video and counted the steps. The grid-walking test was performed on the day before surgery and on days 21 and 35 post-SCI. Only those mice with consistent plantar stepping (BMS≥5) were tested on the grid.

[3] = test system: spinal cord coronal sections of SCI mice; settings: female, n=3
Experimental: We first measured the lesion size and spared white matter using cresyl violet and cosin staining.
Tissue Processing: All the animals were deeply anesthetized with Avertin and then perfused transcardially with cold saline, followed by a fixative containing 4% paraformaldehyde (PFA) in PBS. The spinal cord was removed, post-fixed overnight in PFA, and cryoprotected for 48 hours in 30% sucrose. Serial 30 μm thick coronal sections were cut using a cryostat (Leica CM 1950), mounted on slides and stored at −20° C. The sections were then processed for histopathological analysis.
Cresyl violet and cosin staining: A set of slides were first removed from the freezer and allowed to air dry for a minimum of 60 minutes at room temperature. Subsequently, the sections were treated with two 5-minute rinses in 10 mM PBS, followed by a 1-minute rinse in ddH2O. Next, slides were immersed for 20 minutes in Nissl stain, followed by two 5-minute rinses in ddH2O. Subsequently, slides were sequentially immersed in 90% ethanol (3 minutes), 95% ethanol (3 minutes), two changes of 100% ethanol (3 minutes each), and finally, three changes of 100% xylene (3 minutes each). Lastly, slides were mounted using Permount.

[4] = test system: mice with contusive T9 moderate SCI (IH); settings: IH model
Excerpt: Rotarod test: Rotorod is used to assay the hindlimb function of the animal. The animal was put on a rotated device. It consisted of a metal frame with a motorized, rotating assembly of rods. Animals were allowed to remain stationary. […] If animal skilled, it can remain on the device at this speed for extra 30 sec until the 2-min test period elapsed. Normally, a trial was ended if the animal fell completely off the rod or gripped the rod and spun around without attempting to walk on the rod. Mean duration on the rod was recorded.

[5] = test system: mice with contusive T9 moderate SCI (IH); settings: 6 wk, SCI+Dex, n=10
Experimental: as §1

mouse with a SCI = settings: metabolic cage, n=5

Cc1cccc([C@H](C)c2cnc[nH]2)c1C [Dex, dexmedetomidine hydrochloride]
time at which normal body temperature was regained ([1]; Dex 100 μg/kg 1 hour after T9 SCI): 24 hr post trauma
duration of hypothermia ([1]; Dex 100 μg/kg one hour after T9 SCI (LISA)): up to 16 hours
time to spontaneously rewarm to normal temperature ([1]; Dex 100 μg/kg one hour after T9 SCI, after the hypothermia period): 5 to 6 h
rewarming rate ([1]; Dex 100 μg/kg one hour after T9 SCI, spontaneous rewarming, hydrochloride): < 1.0 °C per hour
foot fall rate ([2]; 4 weeks post-injury): 17.3±5.1%
foot fall rate ([2]; 6 weeks post-injury): 12.9±3.6%
recovery of sensorimotor functions (Grid Walk) ([2]; FIG. 3D, female): better recovery of sensorimotor functions
total area of spinal cord section, SCI+Dex vs. SCI [3]: no significant difference
Rotarod duration time ([4]; 6 wk, SCI+Dex, n=10): 35.3±1.84
Rotarod average increase rate vs. none-treatment SCI mice [4]: 55%
Grid walk foot fall [5]: 12.9±3.6
urination volume (mouse with a SCI; 24 hours): 0.48 ± 0.22 mL
residual urine volume (mouse with a SCI): 0.4 ± 0.22 mL
